In patent US20260258035A1, “FIVE-MEMBERED AND SIX-MEMBERED NITROGEN-CONTAINING COMPOUND, AND INTERMEDIATE, PREPARATION METHOD AND USE THEREOF” (HANGZHOU SYNRX THERAPEUTICS BIOMEDICAL TECHNOLOGY CO., LTD., priority 2022, published 2026):
Where two headings read alike, the source gives them in different places.

How the values were obtained:
HCC1806 = experiment: Cell viability assay (CellTiter-Glo); format: cell-based, Human; conditions: HCC1806, 7 days, CellTiter-Glo, read-out: IC50 (nM) in cell viability assay
[1] = system: Human breast squamous carcinoma cells HCC1806; experiment: Cell function assay (In-Cell Western, PAR/pADPr after MMS); format: cell-based; conditions: read-out: IC50 (nM) in cell function assay
Summary of the method: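 HCC1806 cells adhered 24 h at 37 °C, 5% CO2, then were pretreated 1 h with compound (30000 nM down to 1 nM, plus 0 nM) or DMSO. MMS was then added at 0.5 mM final for 1 h before In-Cell Western detection of PAR/pADPr.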

PARG = PARG (Homo sapiens, UniProt Q86W56); experiment: Biochemical assay (PARG, TFMU-ADPr substrate)
PARG, sequence (Q86W56 whole entry): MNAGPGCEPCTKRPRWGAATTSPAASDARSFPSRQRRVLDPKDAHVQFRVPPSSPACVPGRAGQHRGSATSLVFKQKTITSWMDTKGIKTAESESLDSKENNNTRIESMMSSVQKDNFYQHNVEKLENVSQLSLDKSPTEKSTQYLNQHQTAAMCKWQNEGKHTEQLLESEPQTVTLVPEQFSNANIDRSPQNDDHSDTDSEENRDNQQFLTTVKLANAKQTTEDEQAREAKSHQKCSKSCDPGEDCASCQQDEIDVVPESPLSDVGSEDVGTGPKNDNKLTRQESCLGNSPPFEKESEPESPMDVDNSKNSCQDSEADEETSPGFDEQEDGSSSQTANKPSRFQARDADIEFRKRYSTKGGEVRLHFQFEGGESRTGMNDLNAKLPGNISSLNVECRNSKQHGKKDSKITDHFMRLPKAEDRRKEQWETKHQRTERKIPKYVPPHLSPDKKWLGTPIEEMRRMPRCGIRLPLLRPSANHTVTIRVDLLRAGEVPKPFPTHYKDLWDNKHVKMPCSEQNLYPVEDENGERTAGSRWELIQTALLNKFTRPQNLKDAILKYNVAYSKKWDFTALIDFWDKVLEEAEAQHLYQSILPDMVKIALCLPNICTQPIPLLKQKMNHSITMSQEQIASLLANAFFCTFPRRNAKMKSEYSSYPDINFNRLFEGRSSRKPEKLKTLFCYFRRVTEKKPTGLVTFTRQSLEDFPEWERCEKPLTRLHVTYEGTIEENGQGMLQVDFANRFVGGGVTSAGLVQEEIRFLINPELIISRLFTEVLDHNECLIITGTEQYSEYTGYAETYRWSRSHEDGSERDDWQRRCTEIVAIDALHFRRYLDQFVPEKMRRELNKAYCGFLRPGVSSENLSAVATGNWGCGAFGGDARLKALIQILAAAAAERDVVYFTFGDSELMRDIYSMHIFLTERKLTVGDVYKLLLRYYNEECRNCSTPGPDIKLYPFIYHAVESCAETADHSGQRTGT

PXR = molecular target: T1, PXR (Homo sapiens, UniProt O75469); experiment: PXR assay (DPX2 luciferase reporter cells); format: cell-based; conditions: 24 h; for PXR Activation @30 uM (% Ctrl): positive control rifampicin
T1 construct: host or cells: DPX2 (HepG2)
T1 sequence (O75469 1-434): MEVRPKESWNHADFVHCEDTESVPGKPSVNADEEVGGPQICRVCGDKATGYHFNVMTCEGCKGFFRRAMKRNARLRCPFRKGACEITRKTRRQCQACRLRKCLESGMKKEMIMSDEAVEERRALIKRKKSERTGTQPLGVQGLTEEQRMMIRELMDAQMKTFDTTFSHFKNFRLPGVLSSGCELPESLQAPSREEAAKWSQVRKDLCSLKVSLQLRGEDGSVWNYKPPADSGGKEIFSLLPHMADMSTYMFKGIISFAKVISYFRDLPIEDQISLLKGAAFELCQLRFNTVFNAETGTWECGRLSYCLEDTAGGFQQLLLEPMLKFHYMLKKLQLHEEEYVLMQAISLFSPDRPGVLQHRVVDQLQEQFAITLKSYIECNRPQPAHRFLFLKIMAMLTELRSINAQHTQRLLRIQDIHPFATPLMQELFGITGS
Experimental: 1) Information of Cell Line
DPX2 (HepG2 cells stably transfected with PXR and luciferase reporter) cells were purchased from Puracyp Inc (Carlsbad, CA).
2) Experimental Procedures a) Reagents and Consumables
The DPX2 cells were cultured in the growth medium containing 1000 fetal bovine serum. The DPX2 cells in a T-75 flask were cultured in the […] incubator at 37° C. with 950% relative humidity, and digested when the cells grew to cover 80-90% of the bottom of the flask.
The surface layer of the T-75 cultured cells was washed with 10 mL of PBS; PBS was pipetted; 3-5 mL of tryp sin was added; the cells were digested at 37° C. for 5 minutes or until the cells were digested to be suspended; and excessive medium containing fetal bovine serum was added to stop trypsinization. The cell suspension was transferred to a conical-bottomed centrifuge tube and centrifuged at 150 g rpm for 5 minutes at room temperature; the supernatant was carefully pipetted; and the cells were resuspended with the treatment medium, with the concentration adjusted to 3.2×10^5 cells/mL (incubation time: 24 hours, plate seeding density: […]). 25 μL of the cell suspension was added to each well of the 384-well cell culture plate.
The cell culture plate was placed and cultured for 24 h in the […] incubator with 9500 humidity at 37° C. c) Formulation of Compound
The stock solution of each of 1000× test compound, the positive control (rifampicin), and the negative control (propranolol) was prepared with DMSO. The final concentrations of the positive control (rifampicin) were 1 μM and 10 μM, and the final concentration of the negative control (propranolol) was 10 μM. The final concentrations of the test compound were 10 μM, 1 μM, 0.1 μM, or EC50 (30 μM, 10 μM, 3 μM, 1 μM, 0.3 μM, 0.1 μM). The final concentration of DMSO was 0.10. The cell culture plate was taken out from the incubator, and 25 nL of the stock solution of the positive control, negative control or test compound was directly added with Echo, each with three parallel concentrations. The cell culture plate was placed in the incubator and continued to be incubated for 24 h. Before starting the assay with the substrate, the cell morphology and the monolayer integrity were checked to ensure that the monolayer was of acceptable research quality. […]
d) Quantitative Detection with PXR Activation
After 24 hours of dosing, the culture could be quantitatively detected with PXR activation. The CellTiter-Fluor™ Cell Viability Assay Kit and One-Glo Luciferase reagent were equilibrated to room temperature. The GF-AFC substrate (10 μL) was added to the assay buffer (10 ml) to develop a 2× reagent, which was then diluted into a 1× reagent with 10 ml of PBS. The ONE-Glo Luciferase substrate was added to the ONE-Glo Luciferase assay buffer. The culture plate was taken out from the incubator; the medium was discarded; 1× of CellTiter-Fluor™ reagent was poured into the loading slot; 25 μL of reagent were added per well to the culture plate with a pipetting workstation; and the culture plate was then incubated in the incubator for 30 minutes. The cell culture plate was taken out from the incubator, and cooled slightly to room temperature; and the fluorescence value was determined with a fully automatic quantitative microplate reader, with the excitation light of 400 nm and the emission light of 505 nm. The ONE-Glo reagent was poured into the loading slot, with 25 μL per well, and the resulting mixture was gently mixed in the plate, and incubated at room temperature for 5 minutes to determine the luminescence value.

[2] = HCC1806, In-Cell Western, MMS treatment
[3] = HCC1806, compound 1 h then 0.5 mM MMS 1 h, PAR/pADPr antibody, In-Cell Western
[4] = 4 nM PARG, 66.2 uM TFMU-ADPr, 3 min at room temperature

## C[C@@H]1CN(c2cc(S(=O)(=O)NC3(C#N)CC3)cn3c(-c4nnc(C(F)F)s4)nc(Cl)c23)CCN1C(=O)C1(C)CC1 [Example 123, (R)-1-chloro-N-(1-cyanocyclopropyl)-3-(5-(difluoromethyl)-1,3,4-thiadiazol-2-yl)-8-(3-methyl-4-(1-methylcyclopropane-1-carbonyl)piperazin-1-yl)imidazo[1,5-a]pyridine-6-sulfonamide]
HCC1806
  IC50: 584 nM
HCC1806; Homo sapiens, HCC1806, 168 h
  IC50: 500 to 5000 nM
[1]; [2]
  IC50: 7.13 nM
[1]; [3]
  IC50: < 100 nM
PARG; [4]
  IC50: < 100 nM
PARG; PARG, TFMU-ADPr substrate
  IC50: 9.12 nM

## N#CC1(NS(=O)(=O)c2cc(N3CCN(C(=O)C4CC(F)(F)C4)CC3)c3cnc(-c4nnc(C(F)F)s4)n3c2)CC1 [Example 146, N-(1-cyanocyclopropyl)-8-(4-(3,3-difluorocyclobutane-1-carbonyl)piperazin-1-yl)-3-(5-(difluoromethyl)-1,3,4-thiadiazol-2-yl)imidazo[1,5-a]pyridine-6-sulfonamide]
HCC1806
  IC50: 692 nM
HCC1806; Homo sapiens, HCC1806, 168 h
  IC50: 500 to 5000 nM
[1]; [2]
  IC50: 28.9 nM
[1]; [3]
  IC50: < 100 nM
PARG; [4]
  IC50: < 100 nM
PARG; PARG, TFMU-ADPr substrate
  IC50: 11.5 nM

## CC(C)C(=O)N1CCN(c2cc(S(=O)(=O)NC3(C#N)COC3)cn3c(-c4nnc(C(F)F)s4)ncc23)CC1 [Example 148, N-(3-cyanooxetan-3-yl)-3-(5-(difluoromethyl)-1,3,4-thiadiazol-2-yl)-8-(4-isobutyrylpiperazin-1-yl)imidazo[1,5-a]pyridine-6-sulfonamide]
HCC1806
  IC50: 8810 nM
HCC1806; Homo sapiens, HCC1806, 168 h
  IC50: 5000 to 30000 nM
[1]; [2]
  IC50: 8510 nM
[1]; [3]
  IC50: > 1000 nM
PARG; [4]
  IC50: < 100 nM
PARG; PARG, TFMU-ADPr substrate
  IC50: 2.04 nM

## [2H]c1nc(-c2nnc(C(F)F)s2)n2cc(S(=O)(=O)NC3(CF)COC3)cc(N3CCN(C(=O)C(C)C)CC3)c12 [Example 153, 3-(5-(difluoromethyl)-1,3,4-thiadiazol-2-yl)-N-(3-(fluoromethyl)oxetan-3-yl)-8-(4-isobutyrylpiperazin-1-yl)imidazo[1,5-a]pyridine-6-sulfonamide-1-d]
HCC1806
  IC50: 352 nM
HCC1806; Homo sapiens, HCC1806, 168 h
  IC50: 500 to 5000 nM
[1]; [2]
  IC50: 2.99 nM
[1]; [3]
  IC50: < 100 nM
PARG; [4]
  IC50: < 100 nM
PARG; PARG, TFMU-ADPr substrate
  IC50: 5.34 nM

## [2H]c1nc(-c2nnc(C(F)F)s2)n2cc(S(=O)(=O)NC3(C)COC3)c(F)c(N3CCN(C(=O)C(C)C)CC3)c12 [Example 155, 3-(5-(difluoromethyl)-1,3,4-thiadiazol-2-yl)-7-fluoro-8-(4-isobutyrylpiperazin-1-yl)-N-(3-methyloxetan-3-yl)imidazo[1,5-a]pyridine-6-sulfonamide-1-d]
HCC1806
  IC50: 727 nM
HCC1806; Homo sapiens, HCC1806, 168 h
  IC50: 500 to 5000 nM
[1]; [2]
  IC50: 39.1 nM
[1]; [3]
  IC50: 100 to 500 nM
PARG; [4]
  IC50: < 100 nM
PARG; PARG, TFMU-ADPr substrate
  IC50: 1.68 nM

## [2H]c1nc(-c2nnc(C(F)F)s2)n2cc(S(=O)(=O)NC3(C#N)CC3)cc(N3CCN(C(=O)C4(C)CC4)[C@H](C)C3)c12 [Example 156, (R)—N-(1-cyanocyclopropyl)-3-(5-(difluoromethyl)-1,3,4-thiadiazol-2-yl)-8-(3-methyl-4-(1-methylcyclopropane-1-carbonyl)piperazin-1-yl)imidazo[1,5-a]pyridine-6-sulfonamide-1-d]
HCC1806
  IC50: 280 nM
HCC1806; Homo sapiens, HCC1806, 168 h
  IC50: < 500 nM
[1]; [2]
  IC50: 12 nM
[1]; [3]
  IC50: < 100 nM
PARG; [4]
  IC50: < 100 nM
PARG; PARG, TFMU-ADPr substrate
  IC50: 6.92 nM

## C[C@H]1CN(c2cc(S(=O)(=O)NC3(C)COC3)cn3c(-c4nnc(C(F)F)s4)ncc23)C[C@H](C)N1 [Example 179, 3-(5-(difluoromethyl)-1,3,4-thiadiazol-2-yl)-8-((3S,5S)-3,5-dimethylpiperazin-1-yl)-N-(3-methyloxetan-3-yl)imidazo[1,5-a]pyridine-6-sulfonamide]
HCC1806; Homo sapiens, HCC1806, 168 h
  IC50: 24 nM
PXR
  PXR Activation @30 uM (Fold): 3.2 Fold
  PXR Activation @30 uM (% Ctrl): 22 % Ctrl
PARG; PARG, TFMU-ADPr substrate
  IC50: 0.35 nM

## COC1(C(=O)N2CCN(c3cc(S(=O)(=O)NC4(C)CC4)cn4c(-c5nnc(C(F)(F)F)s5)ncc34)CC2)CC1 [Example 193, 8-(4-(1-methoxycyclopropane-1-carbonyl)piperazin-1-yl)-N-(1-methylcyclopropyl)-3-(5-(trifluoromethyl)-1,3,4-thiadiazol-2-yl)imidazo[1,5-a]pyridine-6-sulfonamide]
HCC1806; Homo sapiens, HCC1806, 168 h
  IC50: 5.76 nM
PXR
  PXR Activation @30 uM (Fold): 2.4 Fold
  PXR Activation @30 uM (% Ctrl): 15 % Ctrl
PARG; PARG, TFMU-ADPr substrate
  IC50: 0.36 nM

## N#CC1(NS(=O)(=O)c2cc(N3CCN(C(=O)c4ccncc4)CC3)c3cnc(-c4nnc(C(F)(F)F)s4)n3c2)CC1 [Example 254, N-(1-cyanocyclopropyl)-8-(4-isonicotinoylpiperazin-1-yl)-3-(5-(trifluoromethyl)-1,3,4-thiadiazol-2-yl)imidazo[1,5-a]pyridine-6-sulfonamide]
HCC1806; Homo sapiens, HCC1806, 168 h
  IC50: 700 nM
PXR
  PXR Activation @30 uM (Fold): 1.6 Fold
  PXR Activation @30 uM (% Ctrl): 12 % Ctrl
PARG; PARG, TFMU-ADPr substrate
  IC50: 11.5 nM

## CC1(NS(=O)(=O)c2cc(N3CCN(C(=O)[C@@H]4CCN4)CC3)c3cnc(-c4nnc(C(F)(F)F)s4)n3c2)CC1 [Example 284, (S)-8-(4-(azetidine-2-carbonyl)piperazin-1-yl)-N-(1-methylcyclopropyl)-3-(5-(trifluoromethyl)-1,3,4-thiadiazol-2-yl)imidazo[1,5-a]pyridine-6-sulfonamide]
HCC1806; Homo sapiens, HCC1806, 168 h
  IC50: 310 nM
PXR
  PXR Activation @30 uM (Fold): 1.1 Fold
  PXR Activation @30 uM (% Ctrl): 7 % Ctrl
PARG; PARG, TFMU-ADPr substrate
  IC50: 16.6 nM

## CN1CC[C@H]1C(=O)N1CCN(c2cc(S(=O)(=O)NC3(C)CC3)cn3c(-c4nnc(C(F)(F)F)s4)ncc23)CC1 [Example 285, (S)-8-(4-(1-methylazetidine-2-carbonyl)piperazin-1-yl)-N-(1-methylcyclopropyl)-3-(5-(trifluoromethyl)-1,3,4-thiadiazol-2-yl)imidazo[1,5-a]pyridine-6-sulfonamide]
HCC1806; Homo sapiens, HCC1806, 168 h
  IC50: 246 nM
PXR
  PXR Activation @30 uM (Fold): 1.7 Fold
  PXR Activation @30 uM (% Ctrl): 10 % Ctrl
PARG; PARG, TFMU-ADPr substrate
  IC50: 20 nM

## CC(C)C(=O)N1CCN(c2cc(S(=O)(=O)NC3(C#N)CC3)cn3c(-c4nnc(CO)s4)ncc23)CC1 [Example 366, N-(1-cyanocyclopropyl)-3-(5-(hydroxymethyl)-1,3,4-thiadiazol-2-yl)-8-(4-isobutyrylpiperazin-1-yl)imidazo[1,5-a]pyridine-6-sulfonamide]
HCC1806
  IC50: 7730 nM
HCC1806; Homo sapiens, HCC1806, 168 h
  IC50: 5000 to 30000 nM
[1]; [2]
  IC50: 70.4 nM
[1]; [3]
  IC50: < 100 nM
PARG; [4]
  IC50: < 100 nM
PARG; PARG, TFMU-ADPr substrate
  IC50: 7.94 nM
